SMILES strings stand for the structures.

The assay deals with PIK3CD (Human) (UniProt O00329). Description: Assessment of PIK3CD Kinase Activity.
PIK3CD (Human), sequence (O00329 whole entry, looked up): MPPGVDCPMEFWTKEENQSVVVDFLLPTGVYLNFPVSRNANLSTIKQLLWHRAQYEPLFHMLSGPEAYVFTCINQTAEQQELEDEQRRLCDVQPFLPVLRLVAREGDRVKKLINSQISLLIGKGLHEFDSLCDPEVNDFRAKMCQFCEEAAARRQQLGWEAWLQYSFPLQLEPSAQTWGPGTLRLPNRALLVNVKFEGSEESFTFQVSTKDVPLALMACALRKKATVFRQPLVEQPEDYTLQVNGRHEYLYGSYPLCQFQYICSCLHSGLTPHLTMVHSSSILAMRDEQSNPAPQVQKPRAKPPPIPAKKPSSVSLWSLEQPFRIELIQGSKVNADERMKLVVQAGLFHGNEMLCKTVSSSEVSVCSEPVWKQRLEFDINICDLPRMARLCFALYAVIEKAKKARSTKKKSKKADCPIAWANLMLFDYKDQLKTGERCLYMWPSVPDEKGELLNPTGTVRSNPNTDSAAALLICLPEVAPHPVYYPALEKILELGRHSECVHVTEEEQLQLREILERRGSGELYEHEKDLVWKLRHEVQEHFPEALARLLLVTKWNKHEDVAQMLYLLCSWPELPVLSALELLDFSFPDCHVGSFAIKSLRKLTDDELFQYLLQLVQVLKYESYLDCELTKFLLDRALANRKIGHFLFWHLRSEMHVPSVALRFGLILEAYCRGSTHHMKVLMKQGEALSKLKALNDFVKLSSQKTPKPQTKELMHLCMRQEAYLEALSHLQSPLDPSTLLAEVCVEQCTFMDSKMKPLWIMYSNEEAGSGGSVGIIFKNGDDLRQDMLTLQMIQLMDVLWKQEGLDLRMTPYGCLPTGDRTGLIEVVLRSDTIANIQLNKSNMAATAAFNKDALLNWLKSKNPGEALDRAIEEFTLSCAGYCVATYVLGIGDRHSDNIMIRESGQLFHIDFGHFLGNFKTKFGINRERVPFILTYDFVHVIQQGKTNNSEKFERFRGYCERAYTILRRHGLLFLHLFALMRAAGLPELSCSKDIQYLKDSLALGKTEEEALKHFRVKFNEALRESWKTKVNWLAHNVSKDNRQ

In the case of `Fc1ccc2[nH]ccc2c1-c1nc(N2CCOCC2)c2cc(CN3C[C@@H]4C[C@H]3CN4)ccc2n1`, the IC50 (in general, the concentration that gives 50% inhibition) was under 500 nM.

Regarding `c1cc(-c2nc(N3CCOCC3)c3cc(CN4CC5CNCC5C4)ccc3n2)c2cc[nH]c2c1` (configuration not stated), the IC50 is under 500 nM.

On to `C[C@@H]1CN(Cc2ccc3nc(-c4cccc5[nH]ccc45)nc(N4CCOCC4)c3c2)C[C@H](C)N1`, for which the IC50 was under 500 nM.

In the case of `c1cc(-c2nc(N3CCOCC3)c3cc(CN4CCN5CCC[C@H]5C4)ccc3n2)c2cc[nH]c2c1`, the IC50 was under 500 nM.

In the case of `OCCN1CCN(Cc2ccc3nc(-c4cccc5[nH]ccc45)nc(N4CCOCC4)c3c2)CC1`, the IC50 was under 500 nM.

The compound `c1cc(-c2nc(N3CCOCC3)c3cc(CN4CC5CCC(C4)N5)ccc3n2)c2cc[nH]c2c1` gave a half-inhibitory concentration (IC50) of under 500 nM.

Consider `CN1CCC(N(C)Cc2ccc3nc(-c4cc(F)cc5[nH]ccc45)nc(N4CCOCC4)c3c2)CC1`, for which the IC50 is under 500 nM.

Take `CN1CCC(N(C)Cc2ccc3nc(-c4cccc5[nH]ccc45)nc(N4CCOCC4)c3c2)CC1`: the IC50 is under 500 nM.

With `c1cc(-c2nc(N3CCOCC3)c3cc(CN4CC5(CCNCC5)C4)ccc3n2)c2cc[nH]c2c1`, the IC50 was under 500 nM.

`Fc1cc(-c2nc(N3CCOCC3)c3cc(CN4CCC(N5CCOCC5)CC4)ccc3n2)c2cc[nH]c2c1` gave an IC50 of under 500 nM.

In the case of `c1cc(-c2nc(N3CCOCC3)c3cc(CN4CCC(N5CCOCC5)CC4)ccc3n2)c2cc[nH]c2c1`, the IC50 was under 500 nM.

In turn, `CN1CCN(Cc2ccc3nc(-c4cccc5[nH]ccc45)nc(N4CCOCC4)c3c2)CC1` displayed an IC50 of under 500 nM.

The values are drawn from the Kinase Knowledgebase extract (Sharma et al. 2016).
